Experimental data reported in PubChem BioAssay AID256 (DTP/NCI, 2004).
Where “and” joins values, the source holds several entries; their conditions need not be identical. Identical values can stand only once. Toxic doses and inconclusive results are not listed.

Tested on: CD2F1 mice, L1210 leukemia ip, survival T/C
Assay: NCI In Vivo Anticancer Drug Screen. Data for tumor model L1210 Leukemia (intraperitoneal) in CD2F1 (CDF1) mice
Settings: higher = longer survival
Summary of the method: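 Activity against a transplanted murine tumor was judged by comparing the compound group with a vehicle group. The outcome in the treated animals was divided by that in the controls.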

[1] = endpoint: mean survival time, dose: 100.0 mg/kg/injection, schedule: Q04DX003 (ip), vehicle: saline with Tween-80
[2] = endpoint: mean survival time, dose: 200.0 mg/kg/injection, schedule: Q04DX003 (ip), vehicle: saline with Tween-80
[3] = endpoint: mean survival time, dose: 400.0 mg/kg/injection, schedule: Q04DX003 (ip), vehicle: saline with Tween-80
[4] = endpoint: mean survival time, dose: 100.0 mg/kg/injection, schedule: Q01DX009 (ip), vehicle: saline with Tween-80
[5] = endpoint: mean survival time, dose: 100.0 mg/kg/injection, schedule: Q04DX002 (ip), vehicle: saline with Tween-80
[6] = endpoint: mean survival time, dose: 100.0 mg/kg/injection, schedule: Q04DX002 (ip), vehicle: saline
[7] = endpoint: mean survival time, dose: 200.0 mg/kg/injection, schedule: Q04DX002 (ip), vehicle: saline
[8] = endpoint: mean survival time, dose: 400.0 mg/kg/injection, schedule: Q04DX002 (ip), vehicle: saline
[9] = endpoint: mean survival time, dose: 200.0 mg/kg/injection, schedule: Q01DX009 (ip), vehicle: saline with Tween-80
[10] = endpoint: mean survival time, dose: 400.0 mg/kg/injection, schedule: Q01DX009 (ip), vehicle: saline with Tween-80

For `CN(Cc1cnc2nc(N)nc(N)c2n1)c1ccc(C(=O)NC(CCC(=O)NC(CCC(=O)NC(CCC(=O)NC(CCC(=O)O)C(=O)O)C(=O)O)C(=O)O)C(=O)O)cc1` (stereo not given), the T/C (endpoint: mean survival time, dose: 0.5 mg/kg/injection, schedule: Q01DX005 (ip), vehicle: sodium bicarbonate) was 102 % of control, the T/C (endpoint: mean survival time, dose: 1.0 mg/kg/injection, schedule: Q01DX005 (ip), vehicle: sodium bicarbonate) was 114 % of control and 111 % of control and the T/C (endpoint: mean survival time, dose: 2.0 mg/kg/injection, schedule: Q01DX005 (ip), vehicle: sodium bicarbonate) was 118 % of control.

For `C(CC1CCNCC1)CC1CCNCC1`, the T/C (endpoint: mean survival time, dose: 25.0 mg/kg/injection, schedule: Q04DX003 (ip), vehicle: saline with Tween-80) was 95 % of control and the T/C (endpoint: mean survival time, dose: 50.0 mg/kg/injection, schedule: Q04DX003 (ip), vehicle: saline with Tween-80) was 87 % of control.

In the case of `CCC(C(N)=O)C1=CCCCC1` (stereo not given), the T/C [1] is reported as 103 % of control, the T/C [2] is reported as 104 % of control and the T/C [3] is reported as 101 % of control.

`CCC(O)C(C)(C)[N+](=O)[O-]` (stereo not given) was tested, and the T/C (endpoint: mean survival time, dose: 5.0 mg/kg/injection, schedule: Q01DX009 (ip), vehicle: saline) was 95 % of control, the T/C (endpoint: mean survival time, dose: 10.0 mg/kg/injection, schedule: Q01DX009 (ip), vehicle: saline) was 98 % of control and the T/C (endpoint: mean survival time, dose: 20.0 mg/kg/injection, schedule: Q01DX009 (ip), vehicle: saline) was 98 % of control.

For `CC(C)NC(=O)OCc1c(COC(=O)NC(C)C)c(-c2ccc(Cl)c(Cl)c2)n2c1CCC2`, the T/C (endpoint: mean survival time, dose: 6.25 mg/kg/injection, schedule: Q01DX009 (ip), vehicle: distilled water + Tween-80) was 115 % of control, the T/C (endpoint: mean survival time, dose: 6.25 mg/kg/injection, schedule: Q01DX009 (ip), vehicle: saline with Tween-80) was 103 % of control and the T/C (endpoint: mean survival time, dose: 12.5 mg/kg/injection, schedule: Q01DX009 (ip), vehicle: distilled water + Tween-80) was 118 % of control. For the same compound, the T/C (endpoint: mean survival time, dose: 12.5 mg/kg/injection, schedule: Q01DX009 (ip), vehicle: saline with Tween-80) was 116 % of control, the T/C (endpoint: mean survival time, dose: 25.0 mg/kg/injection, schedule: Q01DX009 (ip), vehicle: saline with Tween-80) was 121 % of control and the T/C [4] was 89 % of control. The T/C (endpoint: median survival time, dose: 50.0 mg/kg/injection, schedule: Q01DX005 (ip), vehicle: saline with Tween-80) was 151 % of control, the T/C (endpoint: median survival time, dose: 100.0 mg/kg/injection, schedule: Q01DX005 (ip), vehicle: saline with Tween-80) was 179 % of control and the T/C (endpoint: median survival time, dose: 200.0 mg/kg/injection, schedule: Q01DX005 (ip), vehicle: saline with Tween-80) was 190 % of control. The T/C (endpoint: median survival time, dose: 800.0 mg/kg/injection, schedule: Q01DX005 (ip), vehicle: saline with Tween-80) was 102 % of control.

In the case of `CC1CC(C)SC(C)S1` (stereo not given), the T/C (endpoint: mean survival time, dose: 50.0 mg/kg/injection, schedule: Q04DX002 (ip), vehicle: saline with Tween-80) is reported as 102 % of control, the T/C [5] is reported as 105 % of control and the T/C (endpoint: mean survival time, dose: 200.0 mg/kg/injection, schedule: Q04DX002 (ip), vehicle: saline with Tween-80) is reported as 97 % of control.

For `NC(CCCCNC(c1ccccc1)(c1ccccc1)c1ccccc1)C(=O)O` (stereo not given), the T/C (endpoint: mean survival time, dose: 25.0 mg/kg/injection, schedule: Q01DX009 (ip), vehicle: saline) was 96 % of control, the T/C (endpoint: mean survival time, dose: 50.0 mg/kg/injection, schedule: Q01DX009 (ip), vehicle: saline) was 94 % of control and the T/C (endpoint: mean survival time, dose: 100.0 mg/kg/injection, schedule: Q01DX009 (ip), vehicle: saline) was 103 % of control.

In the case of `COc1ccc(NC(=O)CC(C)(C)C(=O)O)cc1`, the T/C [1] is reported as 101 % of control, the T/C [2] is reported as 100 % of control and the T/C [3] is reported as 103 % of control.

With `CCOC(=O)CC(O)CC` (stereo not given) the T/C [6] was 95 % of control, the T/C [7] was 95 % of control and the T/C [8] was 95 % of control.

`CCOC(=O)c1cc([N+](=O)[O-])cc([N+](=O)[O-])c1Sc1ncnc2nc[nH]c12` was tested, and the T/C (endpoint: mean survival time, dose: 0.63 mg/kg/injection, schedule: Q01DX005 (ip), vehicle: other) was 98 % of control, the T/C (endpoint: mean survival time, dose: 1.25 mg/kg/injection, schedule: Q01DX005 (ip), vehicle: other) was 102 % of control and the T/C (endpoint: mean survival time, dose: 2.5 mg/kg/injection, schedule: Q01DX005 (ip), vehicle: other) was 110 % of control. For the same compound, the T/C (endpoint: mean survival time, dose: 5.0 mg/kg/injection, schedule: Q01DX005 (ip), vehicle: other) was 100 % of control, the T/C (endpoint: mean survival time, dose: 6.25 mg/kg/injection, schedule: Q01DX005 (ip), vehicle: other) was 120 % of control and the T/C (endpoint: mean survival time, dose: 10.0 mg/kg/injection, schedule: Q01DX005 (ip), vehicle: other) was 107 % of control. The T/C (endpoint: mean survival time, dose: 18.8 mg/kg/injection, schedule: Q01DX005 (ip), vehicle: other) was 112 % of control.

With `O=[N+]([O-])c1ccc2nocc2c1` the T/C (endpoint: mean survival time, dose: 25.0 mg/kg/injection, schedule: Q04DX003 (ip), vehicle: Klucel (hydroxypropylcellulose) (HPC)) was 105 % of control, the T/C (endpoint: mean survival time, dose: 50.0 mg/kg/injection, schedule: Q04DX003 (ip), vehicle: Klucel (hydroxypropylcellulose) (HPC)) was 97 % of control and the T/C (endpoint: mean survival time, dose: 100.0 mg/kg/injection, schedule: Q04DX003 (ip), vehicle: Klucel (hydroxypropylcellulose) (HPC)) was 101 % of control.

For `O=S(=O)(F)c1ccc(S)c(Cl)c1Cl`, the T/C [5] was 98 % of control.

For `OC1(C(Cl)(Cl)Cl)CCCCC1`, the T/C (endpoint: mean survival time, dose: 100.0 mg/kg/injection, schedule: Q01DX009 (ip), vehicle: other) was 101 % of control, the T/C (endpoint: mean survival time, dose: 200.0 mg/kg/injection, schedule: Q01DX009 (ip), vehicle: other) was 103 % of control and the T/C (endpoint: mean survival time, dose: 400.0 mg/kg/injection, schedule: Q01DX009 (ip), vehicle: other) was 106 % of control.

For `CC(=O)c1ccc(Cl)cc1Cl`, the T/C (endpoint: mean survival time, dose: 25.0 mg/kg/injection, schedule: Q01DX001 (ip), vehicle: other) was 104 % of control, the T/C (endpoint: mean survival time, dose: 50.0 mg/kg/injection, schedule: Q01DX001 (ip), vehicle: other) was 102 % of control and the T/C (endpoint: mean survival time, dose: 100.0 mg/kg/injection, schedule: Q01DX001 (ip), vehicle: other) was 95 % of control.

With `O=C(O)c1c(Cl)c(Cl)c(C(=O)O)c(Cl)c1Cl` the T/C [1] was 96 % of control, the T/C [2] was 96 % of control and the T/C [3] was 94 % of control.

In the case of `CCCC(=O)Nc1ccn(C2OC(CO)C(O)C2O)c(=O)n1` (stereo not given), the T/C (endpoint: mean survival time, dose: 50.0 mg/kg/injection, schedule: Q01DX009 (ip), vehicle: saline with Tween-80) is reported as 98 % of control, the T/C (endpoint: mean survival time, dose: 50.0 mg/kg/injection, schedule: Q04DX002 (ip), vehicle: saline) is reported as 100 % of control and the T/C [4] is reported as 102 % of control. For the same compound, the T/C [6] was 97 % of control, the T/C [9] was 102 % of control and the T/C [7] was 97 % of control. The T/C [10] was 104 % of control, the T/C [8] was 97 % of control and the T/C (endpoint: mean survival time, dose: 600.0 mg/kg/injection, schedule: Q04DX002 (ip), vehicle: saline) was 97 % of control.

With `COC(C(=O)C(O)C(C)O)C1Cc2cc3cc(OC4CC(OC5CC(O)C(O)C(C)O5)C(O)C(C)O4)c(C)c(O)c3c(O)c2C(=O)C1OC1CC(OC2CC(O)C(OC3CC(C)(O)C(O)C(C)O3)C(C)O2)C(O)C(C)O1` (stereo not given) the T/C (endpoint: mean survival time, dose: 0.13 mg/kg/injection, schedule: Q01DX009 (ip), vehicle: saline) was 101 % of control, the T/C (endpoint: mean survival time, dose: 0.25 mg/kg/injection, schedule: Q01DX009 (ip), vehicle: saline) was 97 % of control and the T/C (endpoint: mean survival time, dose: 0.5 mg/kg/injection, schedule: Q01DX009 (ip), vehicle: saline) was 101 % of control. For the same compound, the T/C (endpoint: mean survival time, dose: 1.0 mg/kg/injection, schedule: Q01DX009 (ip), vehicle: saline) was 95 % of control.

With `O=C(O)c1ccccc1C(=O)Nc1ccc(Cl)cc1` the T/C [4] was 95 % of control, the T/C [1] was 94 % of control and the T/C [9] was 89 % of control. The T/C [2] was 96 % of control and the T/C [3] was 86 % of control.

For `CC1(C)C=CC=C(C(=O)O)C=C1`, the T/C [4] was 100 % of control, the T/C [1] was 98 % of control and the T/C [9] was 92 % of control. For the same compound, the T/C [2] was 98 % of control, the T/C [10] was 89 % of control and the T/C [3] was 94 % of control.

In the case of `O=c1cc(NCCCOc2ccccc2)[nH]c(=O)[nH]1`, the T/C (endpoint: mean survival time, dose: 100.0 mg/kg/injection, schedule: Q01DX001 (ip), vehicle: saline with Tween-80) is reported as 98 % of control, the T/C (endpoint: mean survival time, dose: 200.0 mg/kg/injection, schedule: Q01DX001 (ip), vehicle: saline with Tween-80) is reported as 98 % of control and the T/C (endpoint: mean survival time, dose: 400.0 mg/kg/injection, schedule: Q01DX001 (ip), vehicle: saline with Tween-80) is reported as 98 % of control.

For `COc1cc2c(c(OC)c1OC)-c1ccc(SC)c(=O)cc1[C@@H](NC(=O)CCl)CC2`, the T/C (endpoint: mean survival time, dose: 0.05 mg/kg/injection, schedule: Q01DX009 (ip), vehicle: water) was 108 % of control, the T/C (endpoint: mean survival time, dose: 0.1 mg/kg/injection, schedule: Q01DX009 (ip), vehicle: water) was 106 % of control and the T/C (endpoint: mean survival time, dose: 0.2 mg/kg/injection, schedule: Q01DX009 (ip), vehicle: water) was 115 % of control. The T/C (endpoint: mean survival time, dose: 0.4 mg/kg/injection, schedule: Q01DX009 (ip), vehicle: water) was 108 % of control and 111 % of control and the T/C (endpoint: mean survival time, dose: 0.8 mg/kg/injection, schedule: Q01DX009 (ip), vehicle: water) was 120 % of control and 108 % of control.

In the case of `CCOC(=O)CCCCCSc1nn(C2OC(CO)C(O)C2O)c(=O)[nH]c1=O` (stereo not given), the T/C (endpoint: mean survival time, dose: 12.5 mg/kg/injection, schedule: Q01DX005 (ip), vehicle: distilled water + Tween-80) is reported as 103 % of control, the T/C (endpoint: mean survival time, dose: 25.0 mg/kg/injection, schedule: Q01DX005 (ip), vehicle: distilled water + Tween-80) is reported as 98 % of control and the T/C (endpoint: mean survival time, dose: 50.0 mg/kg/injection, schedule: Q01DX005 (ip), vehicle: distilled water + Tween-80) is reported as 104 % of control. The T/C (endpoint: mean survival time, dose: 100.0 mg/kg/injection, schedule: Q01DX005 (ip), vehicle: distilled water + Tween-80) was 103 % of control and the T/C (endpoint: mean survival time, dose: 200.0 mg/kg/injection, schedule: Q01DX005 (ip), vehicle: distilled water + Tween-80) was 97 % of control.
